Measured values taken from patent US8399444B2, “Bicyclic imidazole as DP1 receptor antagonists” (GlaxoSmithKline Intellectual Property Development Ltd., priority 2008, dated 2013).
“And” between values parts separate entries of the source, which are not always exact repeats. Equal entries are not always repeated. Structures can show the parent of a compound that is named as a salt.

Biological target: T1, Prostanoid DP1 receptor (Homo sapiens, UniProt Q13258)
T1 construct: expressed in transfected cells; host or cells: CHO K1
T1 sequence (Q13258 1-359): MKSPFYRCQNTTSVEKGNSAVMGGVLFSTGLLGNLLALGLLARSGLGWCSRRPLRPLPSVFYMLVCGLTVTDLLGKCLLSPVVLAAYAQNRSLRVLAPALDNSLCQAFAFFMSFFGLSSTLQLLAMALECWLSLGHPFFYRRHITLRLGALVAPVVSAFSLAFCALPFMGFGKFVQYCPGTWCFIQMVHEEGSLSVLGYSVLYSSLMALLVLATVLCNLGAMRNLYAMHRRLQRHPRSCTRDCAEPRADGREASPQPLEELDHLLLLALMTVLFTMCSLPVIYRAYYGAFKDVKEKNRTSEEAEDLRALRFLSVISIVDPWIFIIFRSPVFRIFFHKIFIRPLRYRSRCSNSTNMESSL
Assay: Measurement of cAMP using TR-FRET LANCE assay: Prostanoid DP1
Assay type: cell-based
Settings: CHO cells expressing DP1 receptor, antagonism of PGD2 (EC80) cAMP response; read-out: pKi value (converted)
Description: CHO K1 cells, stably expressing the Prostanoid DP1 receptor, were maintained in culture in DMEM/F12, supplemented with 5% FBS, 2 mM L-glutamine, 400 μg/mL hygromycin B in 95%: 5% air: CO2 at 37° C. Following harvest from culture, cells were centrifuged at 250 g at 4° C. for 10 minutes and re-suspended in ice cold dialysed FCS. Once the cells were in mono-suspension they were slowly mixed with an equal volume of ice cold 80% dialysed FCS: 20% DMSO (pre-mixed and chilled several hours earlier). The cells were then aliquoted into 1 mL tubes within a 96 well block (pre-cooled to 4° C.). Once sealed, the tubes were frozen in a controlled rate freezer. The frozen cells were then transferred to a −140° C. freezer for long term storage.
Measurement of cAMP Using TR-FRET LANCE™ Assays: Prostanoid DP1
The potency of the compounds were determined using a LANCE™ cAMP assay kit as per the kit instructions. Briefly, CHO cells expressing DP1 receptor were thawed at 37° C., diluted in PBS and centrifuged at 1000 RPM for 5 minutes. Cells were then re-suspended (2 million cells/mL) in stimulation buffer (HBSS containing 0.01% BSA, 500 μM FAC IBMX, 5 mmol/L HEPES adjusted to pH 7.4 with KOH.
Briefly, cells were added (10,000 cells/well at 5 μL addition) to low volume white Greiner polypropylene 384-well plate assay plates containing 0.1 μl test compound. Following a 15 minute incubation at room temperature, 5 μl of antibody solution (stimulation buffer containing Alexia fluor 647) containing PGD2 at twice the determined EC80 concentration was added. Plates were incubated for a further 30 minutes at room temperature then detection mixture was added (kit components; detection buffer, europiumW8044-labelled streptavidin and biotin cAMP at 10 μl/well). Plates were covered and incubated the room temperature for 1 hour before reading on a Viewlux Microplate Imager using TR-FRET label settings.
All compounds were dissolved in DMSO at a concentration of 10 mM and were prepared in 100% DMSO using a 1 in 4 dilution step to provide 11-point concentration—response curves. The dilutions were transferred to the assay plates ensuring that the DMSO concentration was constant across the plate at 1% for all assays.
All data were normalised to the mean of 16 high and 16 low control wells on each plate. A four parameter curve fit of the following form was then applied.
Where a is the minimum, b is the Hill slope, c is the XC50, and d is the maximum. Data are presented as the mean pXC50 (negative log 10 of the molar XC50) with the standard deviation (SD) of number of tests in the experiments.

| Structure (SMILES) | Ki |
| --- | --- |
| CC(C)c1nc2c(n1Cc1ccc(Cl)c(Cl)c1)C(CC(=O)O)CCCC2 (single isomer, unassigned; isomer 1) [Example 4, (+)-[3-[(3,4-dichlorophenyl)methyl]-2-(1-methylethyl)-3,4,5,6,7,8-hexahydrocyclohepta[d]imidazol-4-yl]acetic acid (isomer 1)] | ≤ 0.01 µM |
| CC(C)c1nc2c(n1Cc1ccc(Cl)c(Cl)c1)C(CC(=O)O)CC2 (single isomer, unassigned; isomer 1) [Example 10, (+)-[3-[(3,4-dichlorophenyl)methyl]-2-(1-methylethyl)-3,4,5,6-tetrahydrocyclopenta[d]imidazol-4-yl]acetic acid ammonia salt (Isomer 1)] | ≤ 0.01 µM |
| CC(C)c1nc2c(n1Cc1ccc(Cl)c(Cl)c1)C(OCC(=O)O)CCCC2 (single isomer, unassigned; isomer 1) [Example 36, {[3-[(3,4-dichlorophenyl)methyl]-2-(1-methylethyl)-3,4,5,6,7,8-hexahydrocyclohepta[d]imidazol-4-yl]oxy}acetic acid ammonia salt (Isomer 1)] | ≤ 0.1 µM |
| CC(C)c1nc2c(n1Cc1ccc(Cl)c(Cl)c1)C(CC(=O)O)CCCC2 (single isomer, unassigned; isomer 2) [Example 5, [3-[(3,4-dichlorophenyl)methyl]-2-(1-methylethyl)-3,4,5,6,7,8-hexahydrocyclohepta[d]imidazol-4-yl]acetic acid (isomer 2)] | ≤ 0.1 µM |
| CC(C)c1nc2c(n1Cc1ccc(Cl)cc1)C(CC(=O)O)CCC2 (single isomer, unassigned; isomer 2) [Example 17, (−)-[1-[(4-chlorophenyl)methyl]-2-(1-methylethyl)-4,5,6,7-tetrahydro-1H-benzimidazol-7-yl]acetic acid ammonia salt (Isomer 2)] | ≤ 0.01 µM |
| CC(C)c1nc2c(n1Cc1ccc(Cl)cc1)C(OCC(=O)O)CCC2 (single isomer, unassigned; isomer 2) [Example 26, {[1-[(4-chlorophenyl)methyl]-2-(1-methylethyl)-4,5,6,7-tetrahydro-1H-benzimidazol-7-yl]oxy}acetic acid formic acid salt (isomer 2)] | ≤ 0.01 µM |
| CC(C)c1nc2c(n1Cc1ccc(Cl)cc1)C(CC(=O)O)CCCC2 (stereo not drawn) [Example 1, [3-[(4-chlorophenyl)methyl]-2-(1-methylethyl)-3,4,5,6,7,8-hexahydrocyclohepta[d]imidazol-4-yl]acetic acid] | ≤ 0.01 µM |
| CC(C)c1nc2c(n1Cc1ccc(Cl)cc1)C(OCC(=O)O)CCCC2 (stereo not drawn) [Example 2] | ≤ 0.1 µM |

Continued, values first:

| Ki | Structure (SMILES) |
| --- | --- |
| ≤ 0.1 µM | CC(C)c1nc2c(n1Cc1ccc(Cl)c(Cl)c1)C(CC(=O)O)CC2 (single isomer, unassigned; isomer 2) [Example 11, [3-[(3,4-dichlorophenyl)methyl]-2-(1-methylethyl)-3,4,5,6-tetrahydrocyclopenta[d]imidazol-4-yl]acetic acid ammonia salt (Isomer 2)] |
| ≤ 0.1 µM and ≤ 0.01 µM and ~0.002 µM | CC(C)c1nc2c(n1Cc1ccc(Cl)c(Cl)c1)C(CC(=O)O)CCC2 (single isomer, unassigned; isomer 2) [Example 20, (−)-[1-[3,4-dichlorophenyl)methyl]-2-(1-methylethyl)-4,5,6,7-tetrahydro-1H-benzimidazol-7-yl]acetic acid ammonia salt (Isomer 2)] |
| ≤ 0.01 µM | CC(C)c1nc2c(n1Cc1ccc(Cl)cc1)C(CC(=O)O)CCC2 (single isomer, unassigned; isomer 2) [Example 32, (−)-[1-[(4-chlorophenyl)methyl]-2-(1-methylethyl)-4,5,6,7-tetrahydro-1H-benzimidazol-7-yl]acetic acid (Isomer 2)] |
| ≤ 0.01 µM | CC(C)c1nc2c(n1Cc1ccc(Cl)c(Cl)c1)C(OCC(=O)O)CCCC2 (single isomer, unassigned; isomer 2) [Example 37, {[3-[(3,4-dichlorophenyl)methyl]-2-(1-methylethyl)-3,4,5,6,7,8-hexahydrocyclohepta[d]imidazol-4-yl]oxy}acetic acid ammonia salt (Isomer 2)] |
